Data from US20240360157A1, “TYK2 INHIBITORS” (BIOGEN MA INC., priority 2021, published 2024).

Assays:
Format in all cases: biochemical
[1] = biological target: human TYK2 catalytic kinase (JH1) domain (Homo sapiens (Human), UniProt P29597); assay: ADP-Glo Kinase Assay, recombinant TYK2 catalytic kinase (JH1) domain; details: recombinant JH1 domain 2 nM, 10 μM ATP, JAK3-974 peptide, mean, read-out: TYK2 biochem IC50 (nM) Mean
How it was run: (§1)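 ADP-Glo luminescence with 50 μM peptide and 100 min reactions: JAK1 4 nM with JAK3-342 peptide; JAK2, JAK3 and TYK2 at 0.2, 0.3 and 2 nM with JAK3-974 peptide. Compounds tested from 10 or 1 μM top, 11 points, 3-fold. IC50 from a 4-parameter logistic fit of normalized activity.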

[2] = biological target: human JAK1 catalytic kinase (JH1) domain (Homo sapiens (Human), UniProt P23458); assay: ADP-Glo Kinase Assay, recombinant JAK1 catalytic kinase (JH1) domain; details: recombinant JH1 domain 4 nM, 35 μM ATP, JAK3-342 peptide, mean, read-out: JAK1 biochem IC50 (nM) Mean
How it was run: as §1

[3] = biological target: human JAK2 catalytic kinase (JH1) domain (Homo sapiens (Human), UniProt O60674); assay: ADP-Glo Kinase Assay, recombinant JAK2 catalytic kinase (JH1) domain; details: recombinant JH1 domain 0.2 nM, 15 μM ATP, JAK3-974 peptide, mean, read-out: JAK2 biochem IC50 (nM) Mean
How it was run: as §1

[4] = biological target: human JAK3 catalytic kinase (JH1) domain (Homo sapiens (Human), UniProt P52333); assay: ADP-Glo Kinase Assay, recombinant JAK3 catalytic kinase (JH1) domain; details: recombinant JH1 domain 0.3 nM, 4 μM ATP, JAK3-974 peptide, mean, read-out: JAK3 biochem IC50 (nM) Mean
How it was run: as §1

Sequence of human TYK2 catalytic kinase (JH1) domain (P29597 897-1176): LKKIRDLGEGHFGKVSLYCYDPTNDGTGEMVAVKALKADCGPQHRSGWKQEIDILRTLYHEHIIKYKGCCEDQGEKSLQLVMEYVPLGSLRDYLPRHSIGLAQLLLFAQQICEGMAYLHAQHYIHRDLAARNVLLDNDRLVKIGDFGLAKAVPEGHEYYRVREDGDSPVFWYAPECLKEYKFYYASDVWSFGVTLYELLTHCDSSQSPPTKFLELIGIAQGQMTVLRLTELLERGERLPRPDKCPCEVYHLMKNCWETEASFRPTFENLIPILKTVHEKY
Sequence of human JAK2 catalytic kinase (JH1) domain (O60674 849-1124): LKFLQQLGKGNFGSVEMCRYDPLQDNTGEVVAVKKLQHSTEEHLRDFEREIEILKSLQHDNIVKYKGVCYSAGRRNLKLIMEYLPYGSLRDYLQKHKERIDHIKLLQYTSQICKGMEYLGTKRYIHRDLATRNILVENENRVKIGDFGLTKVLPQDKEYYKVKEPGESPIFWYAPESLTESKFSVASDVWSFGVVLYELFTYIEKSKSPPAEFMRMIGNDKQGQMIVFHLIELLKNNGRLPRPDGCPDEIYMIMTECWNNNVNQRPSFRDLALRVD
Sequence of human JAK1 catalytic kinase (JH1) domain (P23458 875-1153): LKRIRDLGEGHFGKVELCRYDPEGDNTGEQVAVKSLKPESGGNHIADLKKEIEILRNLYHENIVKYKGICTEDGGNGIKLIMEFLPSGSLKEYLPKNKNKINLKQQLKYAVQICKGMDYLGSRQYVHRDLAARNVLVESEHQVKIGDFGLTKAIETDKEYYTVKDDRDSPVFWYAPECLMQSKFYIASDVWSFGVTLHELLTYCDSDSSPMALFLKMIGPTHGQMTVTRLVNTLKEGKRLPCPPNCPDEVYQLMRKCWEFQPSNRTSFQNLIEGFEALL
Sequence of human JAK3 catalytic kinase (JH1) domain (P52333 822-1111): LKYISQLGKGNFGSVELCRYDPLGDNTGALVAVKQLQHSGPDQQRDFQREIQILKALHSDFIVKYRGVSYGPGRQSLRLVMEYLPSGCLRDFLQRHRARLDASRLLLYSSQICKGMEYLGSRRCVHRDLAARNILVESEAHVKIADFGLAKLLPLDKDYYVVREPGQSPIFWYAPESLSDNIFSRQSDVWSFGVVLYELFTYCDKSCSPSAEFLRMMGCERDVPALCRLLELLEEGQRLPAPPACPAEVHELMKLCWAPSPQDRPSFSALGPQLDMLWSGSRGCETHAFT

`O=C([C@@H]1C[C@H]1F)N1C2CCC1CN(c1ccnn3cc([C@H]4CC4(F)F)cc13)C2` (single isomer, unassigned) [Example 135] gave an IC50 [1] of 125 nM, an IC50 [2] of 2010 nM and an IC50 [3] of 8220 nM. For the same compound, the IC50 [4] was ≥ 10000 nM.
`O=C(CC(F)(F)F)N1C2CCC1CN(c1ncnn3cc(-c4cnn(C(F)F)c4)cc13)C2` [Example 43, 1-(3-(6-(1-(difluoromethyl)-1H-pyrazol-4-yl)pyrrolo[2,1-f][1,2,4]triazin-4-yl)-3,8-diazabicyclo[3.2.1]octan-8-yl)-3,3,3-trifluoropropan-1-one] gave an IC50 [1] of 223 nM, an IC50 [2] of 892 nM and an IC50 [3] of 5200 nM. It also gave an IC50 [4] of 4640 nM.
For `CC(C)n1cc(-c2cc3c(N4CC5CCC(C4)N5C(=O)C4CC4)ncnn3c2)cn1` [Example 148], the IC50 [1] was 136 nM, the IC50 [2] was 731 nM and the IC50 [3] was 1650 nM. The IC50 [4] was 2140 nM.
`Cn1cc(-c2cc3c(N4CC5CCC(C4)N5C(=O)C4CC4)ccnn3c2)cn1` [Example 15, cyclopropyl(3-(6-(1-methyl-1H-pyrazol-4-yl)pyrrolo[1,2-b]pyridazin-4-yl)-3,8-diazabicyclo[3.2.1]octan-8-yl)methanone] was tested, and the IC50 [1] was 13 nM, the IC50 [2] was 646 nM and the IC50 [3] was 376 nM. The IC50 [4] was 888 nM.
In the case of `CCC(=O)N1C2CCC1CN(c1ncnn3cc(-c4cnn(C)c4)cc13)C2` [Example 57, 1-(3-(6-(1-methyl-1H-pyrazol-4-yl)pyrrolo[2,1-f][1,2,4]triazin-4-yl)-3,8-diazabicyclo[3.2.1]octan-8-yl)propan-1-one], the IC50 [1] is reported as 941 nM, the IC50 [2] is reported as 5140 nM and the IC50 [3] is reported as 10000 nM. The IC50 [4] was 7850 nM.
In the case of `Cn1cc(-c2cc3c(N4CC5CCC(C4)N5C(=O)[C@H]4C[C@@H]4F)ncnn3c2)cn1` [Example 6, ((1R,2S)-2-fluorocyclopropyl)(3-(6-(1-methyl-1H-pyrazol-4-yl)pyrrolo[2,1-f][1,2,4]triazin-4-yl)-3,8-diazabicyclo[3.2.1]octan-8-yl)methanone], the IC50 [1] is reported as 133 nM, the IC50 [2] is reported as 682 nM and the IC50 [3] is reported as 2260 nM. The IC50 [4] was 827 nM.
For `O=C(C1C[C@H]1F)N1C2CCC1CN(c1ncnc3[nH]c(-c4cncc(F)c4)cc13)C2` (stereo partly shown) [Example 229], the IC50 [1] was 122 nM, the IC50 [2] was 1240 nM and the IC50 [3] was 1740 nM. For the same compound, the IC50 [4] was 10000 nM.
With `COc1cc(-c2cc3c(N4CC5CCC(C4)N5C(=O)[C@@H]4C[C@H]4F)ccnc3[nH]2)ccn1` [Example 245, ((1S,2R)-2-fluorocyclopropyl)(3-(2-(2-methoxypyridin-4-yl)-1H-pyrrolo[2,3-b]pyridin-4-yl)-3,8-diazabicyclo[3.2.1]octan-8-yl)methanone] the IC50 [1] was 0.4 nM, the IC50 [2] was 7 nM and the IC50 [3] was 11 nM. The IC50 [4] was 115 nM.
Compound `O=C([C@@H]1C[C@H]1F)N1C2CCC1CN(c1ccnc3[nH]c(-c4ccc(C(F)F)nc4)nc13)C2` [Example 206] has an IC50 [1] of 6.8 nM, an IC50 [2] of 24 nM and an IC50 [3] of 35 nM. The IC50 [4] was 744 nM.
In the case of `N#C[C@H]1C[C@@H]1C(=O)N1C2CCC1CN(c1ncnn3cc(-c4cnn(C(F)F)c4)cc13)C2` (racemic) [Example 53, Rac-(1S,2S)-2-(3-(6-(1-(difluoromethyl)-1H-pyrazol-4-yl)pyrrolo[2,1-f][1,2,4]triazin-4-yl)-3,8-diazabicyclo[3.2.1]octane-8-carbonyl)cyclopropane-1-carbonitrile], the IC50 [1] is reported as 166 nM, the IC50 [2] is reported as 840 nM and the IC50 [3] is reported as 3380 nM. It also gave an IC50 [4] of 7370 nM.
`Cn1cc(-c2nc3c(N4CC5CCC(C4)N5S(=O)(=O)C4CC4)ccnc3[nH]2)cn1` [Example 195] was tested, and the IC50 [1] was 20.6 nM, the IC50 [2] was 194 nM and the IC50 [3] was 38 nM. For the same compound, the IC50 [4] was 306 nM.
With `O=C(C1CC1)N1C2CCC1CN(c1ncnc3[nH]c(-c4cnn(C(F)F)c4)cc13)C2` [Example 219, cyclopropyl(3-(6-(1-(difluoromethyl)-1H-pyrazol-4-yl)-7H-pyrrolo[2,3-d]pyrimidin-4-yl)-3,8-diazabicyclo[3.2.1]octan-8-yl)methanone] the IC50 [1] was 23.6 nM, the IC50 [2] was 232 nM and the IC50 [3] was 752 nM. The IC50 [4] was 698 nM.
For `O=C([C@@H]1C[C@H]1F)N1C2CCC1CN(c1ccnn3cc(-c4ccnc(F)c4)cc13)C2` [Example 170], the IC50 [1] was 1.2 nM, the IC50 [2] was 25 nM and the IC50 [3] was 36 nM. The IC50 [4] was 344 nM.
`CC1C(C(=O)N2C3CCC2CN(c2ncnn4cc(-c5cnn(C(F)F)c5)cc24)C3)C1(F)F` (stereo not shown) [Example 5, (2,2-difluoro-3-methylcyclopropyl)(3-(6-(1-(difluoromethyl)-1H-pyrazol-4-yl)pyrrolo[2,1-f][1,2,4]triazin-4-yl)-3,8-diazabicyclo[3.2.1]octan-8-yl)methanone] showed an IC50 [1] of 93.1 nM, an IC50 [2] of 707 nM and an IC50 [3] of 3050 nM. It also gave an IC50 [4] of 3700 nM.
`N#C[C@@H]1C[C@@H]1C(=O)N1C2CCC1CN(c1ncnn3cc(-c4cnn(C(F)F)c4)cc13)C2` (racemic) [Example 47, Rac-(1R,2S)-2-(3-(6-(1-(difluoromethyl)-1H-pyrazol-4-yl)pyrrolo[2,1-f][1,2,4]triazin-4-yl)-3,8-diazabicyclo[3.2.1]octane-8-carbonyl)cyclopropane-1-carbonitrile] gave an IC50 [1] of 783 nM, an IC50 [2] of 2530 nM and an IC50 [3] of 8360 nM. For the same compound, the IC50 [4] was 6070 nM.
Compound `CC(C)n1ncc(-c2cc3c(N4CC5CCC(C4)N5C(=O)C4CC4)ncnn3c2)c1F` [Example 162] has an IC50 [1] of 94.9 nM, an IC50 [2] of 210 nM and an IC50 [3] of 1620 nM. The IC50 [4] was 1250 nM.
`O=C([C@@H]1CC1(F)F)N1C2CCC1CN(c1ccnn3cc(-c4cnn(C(F)F)c4)cc13)C2` [Example 21, ((S)-2,2-difluorocyclopropyl)(3-(6-(1-(difluoromethyl)-1H-pyrazol-4-yl)pyrrolo[1,2-b]pyridazin-4-yl)-3,8-diazabicyclo[3.2.1]octan-8-yl)methanone] showed an IC50 [1] of 1.4 nM, an IC50 [2] of 39 nM and an IC50 [3] of 28 nM. The IC50 [4] was 565 nM.
In the case of `Cn1cc(-c2cc3c(N4CC5CCC(C4)N5C(=O)C(F)(F)F)ncnn3c2)cn1` [Example 87, 2,2,2-trifluoro-1-(3-(6-(1-methyl-1H-pyrazol-4-yl)pyrrolo[2,1-f][1,2,4]triazin-4-yl)-3,8-diazabicyclo[3.2.1]octan-8-yl)ethan-1-one], the IC50 [1] is reported as 266 nM, the IC50 [2] is reported as 1200 nM and the IC50 [3] is reported as 4870 nM. For the same compound, the IC50 [4] was 2550 nM.
In the case of `Cn1cc(-c2cc3c(N4CC5CCC(C4)N5C(=O)C4CC4)ncnn3c2)cn1` [Example 146, cyclopropyl(3-(6-(1-methyl-1H-pyrazol-4-yl)pyrrolo[2,1-f][1,2,4]triazin-4-yl)-3,8-diazabicyclo[3.2.1]octan-8-yl)methanone], the IC50 [1] is reported as 166 nM, the IC50 [2] is reported as 1880 nM and the IC50 [3] is reported as 5850 nM. It also gave an IC50 [4] of 3240 nM.
For `O=C([C@@H]1C[C@H]1F)N1C2CCC1CN(c1ccnn3cc(-c4ccc(C(F)(F)F)nc4)cc13)C2` [Example 117, ((1S,2R)-2-fluorocyclopropyl)(3-(6-(6-(trifluoromethyl)pyridin-3-yl)pyrrolo[1,2-b]pyridazin-4-yl)-3,8-diazabicyclo[3.2.1]octan-8-yl)methanone], the IC50 [1] was 5.2 nM, the IC50 [2] was 67 nM and the IC50 [3] was 64 nM. The IC50 [4] was 878 nM.
With `Cn1cc(-c2[nH]c3nccc(N4CC5CCC(C4)N5C(=O)[C@@H]4C[C@H]4F)c3c2C#N)cn1` [Example 250, 4-(8-((1S,2R)-2-fluorocyclopropane-1-carbonyl)-3,8-diazabicyclo[3.2.1]octan-3-yl)-2-(1-methyl-1H-pyrazol-4-yl)-1H-pyrrolo[2,3-b]pyridine-3-carbonitrile] the IC50 [1] was 7.1 nM, the IC50 [2] was 455 nM and the IC50 [3] was 53 nM. The IC50 [4] was 455 nM.
In the case of `O=S(=O)(C1CC1)N1C2CCC1CN(c1ncnn3cc(-c4cnn(C(F)F)c4)cc13)C2` [Example 188, 4-(8-(cyclopropylsulfonyl)-3,8-diazabicyclo[3.2.1]octan-3-yl)-6-(1-(difluoromethyl)-1H-pyrazol-4-yl)pyrrolo[2,1-f][1,2,4]triazine], the IC50 [1] is reported as 615 nM, the IC50 [2] is reported as 9740 nM and the IC50 [3] is reported as 5890 nM. It also gave an IC50 [4] of 9390 nM.
With `COc1ccc(-c2cc3c(N4CC5CCC(C4)N5C(=O)[C@@H]4C[C@H]4F)ccnn3c2)cn1` [Example 114, ((1S,2R)-2-fluorocyclopropyl)(3-(6-(6-methoxypyridin-3-yl)pyrrolo[1,2-b]pyridazin-4-yl)-3,8-diazabicyclo[3.2.1]octan-8-yl)methanone] the IC50 [1] was 3.8 nM, the IC50 [2] was 54 nM and the IC50 [3] was 47 nM. The IC50 [4] was 684 nM.
`Cn1cc(-c2cc3c(N4CC5CCC(C4)N5C(=O)[C@@H]4C[C@H]4F)ccnc3[nH]2)cn1` [Example 238, ((1S,2R)-2-fluorocyclopropyl)(3-(2-(1-methyl-1H-pyrazol-4-yl)-1H-pyrrolo[2,3-b]pyridin-4-yl)-3,8-diazabicyclo[3.2.1]octan-8-yl)methanone] was tested, and the IC50 [1] was 0.1 nM, the IC50 [2] was 10 nM and the IC50 [3] was 6 nM. The IC50 [4] was 61 nM.
`Cc1ccc(-c2cc3c(N4CC5CCC(C4)N5C(=O)[C@@H]4C[C@H]4F)ccnn3c2)nn1` [Example 125, ((1S,2R)-2-fluorocyclopropyl)(3-(6-(6-methylpyridazin-3-yl)pyrrolo[1,2-b]pyridazin-4-yl)-3,8-diazabicyclo[3.2.1]octan-8-yl)methanone] showed an IC50 [1] of 8.8 nM, an IC50 [2] of 236 nM and an IC50 [3] of 49 nM. The IC50 [4] was 1010 nM.
